Paper PMC10180197, “Novel Pyrimidine Derivatives as Antioxidant and Anticancer Agents: Design, Synthesis and Molecular Modeling Studies” (Molecules, 2023)

Key:
[1] = Experimental determination of lipophilicity as RM values (RP-TLC); format: physicochemical; details: methanol/water 70/30 v/v, 24 °C, SD < 10%
Source text: Lipophilicity is an important physicochemical parameter of a drug candidate, linking solubility and membrane permeability with the ADMET (absorption, distribution, metabolism, elimination and toxicity) properties and the overall suitability of a molecule. Reversed-phase thin-layer chromatography was the method used to experimentally determine the lipophilic character of the synthesized compounds as RM values (Table 2). Lipophilicity was also theoretically calculated as clog P values using the Bio-Loom program of BioByte Corp (http://www.biobyte.com/, (accessed on 1 March 2023)). An attempt was made to correlate the experimental RM values with the theoretically calculated clog P values (Table 2). […] This disagreement could be attributed to several factors, e.g., different solvation, silanophilic interactions and hydrogen bonding.
Lipophilicity as RM values was determined through reversed-phase TLC (RP-TLC) on silica gel plates impregnated with 5% v/v liquid paraffin in light petroleum ether. Methanol/water mixture (70/30, v/v) was used as mobile phase. Closed chromatography tanks saturated with the mobile phase at 24 °C were used for the development of the plates while the spots were detected under UV light. For the determination of RM values, five individual measurements of Rf values were recorded, and the RM values were derived from the following Equation (1). (1) RM=log1/Rf−1

[2] = Reducing activity of the stable radical DPPH
Procedure: All the synthesized compounds were studied for their ability to interact with the stable free 2,2-diphenyl-1-picrylhydrazyl radical (DPPH) at a concentration of 100 μM after 20 min and 60 min (Table 4). This assay is based on the reduction of DPPH by transferring one electron from the antioxidant.
In vitro study was performed as reported previously by our group. In this experiment, 20 μL of the tested compound (from the stock solution), 980 μL EtOH and 1 mL ethanolic solution of DPPH (100 μM) were added in a testing tube in a final volume of 2 mL. The free radical scavenging ability was evaluated by recording the change of absorbance at 517 nm, produced by the reduction of DPPH, after 20 and 60 min at room temperature.

[3] = MTT cell viability assay, HaCaT; format: cell-based, human; details: human, HaCaT cells (epidermal keratinocyte cell line); for viability at 24 h, 10 μM: 10 μΜ; for viability at 24 h, 50 μM: 50 μΜ
Procedure: (§1) The MTT (3-(4,5-dimethylthiazol-2-yl)-2,5-diphenyltetrazolium bromide) assay is a colorimetric method that is used for the evaluation of cell viability. MTT is converted into colored formazan crystals, indicating the activity of mitochondria and therefore the viability of the cells. Unlike dead cells, the metabolic processes of living cells are functional, meaning that the dehydrogenase enzymes are able to reduce the yellow MTT salt solution to purple crystals, at 37 °C. The intensity of the sample’s color, due to the amount of formazan crystals, is proportional to the number of the living cells in it. Additionally, the colored product is dissolved in various solubilizing agents, such as dimethyl sulfoxide (DMSO). The colored products can be quantitatively measured at 450 nm with a plate reader spectrophotometer. In this study, the human epidermal keratinocyte cell line (HaCaT) was treated with different concentrations (100 μM, 50 μM, 10 μM and 1 μM) of the tested compounds and then the viability rates at each effect were calculated.
(§2) Τhe MTT assay was used to evaluate cell viability or cell toxicity, depending on the cell line being tested. The experimental procedure was performed in a 96-well plate, where the cells were seeded and incubated (37 °C, 5% CO2) for 24 h to grow and cover the surface of the wells. Τhe seeding concentrations for the HaCaT and A549 cells were 30 × 10^4 cells/mL and 20 × 10^4 cells/mL, respectively. After the first incubation, the solutions of the compounds (with different concentrations) were added to the adherent cells and incubated for another 24 h. The compounds were tested in triplicate against the control (only cells in medium), the blank (only medium) and the positive/negative control (cells in 100 μM silibinin solution) triplicates. Silibinin, a flavonoid with known anticancer activities, was used as a negative control for the cell viability assay and as positive control for the cytotoxicity testing assay. The light-sensitive MTT-standard solution was prepared by dissolving 1 mg/mL MTT in PBS and then filtrated (in a […] filter (Millipore, Carrigtwohill, Ireland)). On the third day, an appropriate amount of ΜΤΤ solution was added to each well and the plate was incubated for 4 h. During the incubation time, the formazan crystals were formed, which were then dissolved with 100 μL DMSO per well. Finally, the plate was stirred for 30 min, and the optical density (OD) was measured in a plate reader spectrophotometer at 450 nm.

[4] = system: HaCaT cell line; assay: MTT cell viability assay, HaCaT; format: cell-based, human; details: 24 h
Procedure: as §1, §2

[5] = system: A549 cell line; assay: MTT cytotoxicity assay, A549; format: cell-based, human; details: 24 h; for cytotoxicity at 10 µM / cytotoxicity at 50 µM / cytotoxicity at 100 µM: Homo sapiens; for cytotoxicity at 10 µM: read-out: % Cell Toxicity 10 μΜ; for cytotoxicity at 50 µM: read-out: % Cell Toxicity 50 μΜ; for cytotoxicity at 100 µM: A549, 100 μΜ, read-out: % Cell Toxicity 100 μΜ
Procedure: The compounds of this study were also tested for their cytotoxic effects against the adenocarcinomic human alveolar basal epithelial cell line (A549) at different concentrations (100 μM, 75 μΜ, 50 μM and 10 μM).
as §2

Row | RM [1] | SMILES | RA % 100 μM 20 min [2] | RA % 100 μM 60 min [2] | viability at 24 h, 10 μM [3] | % Cell Viability 100 μΜ [4] | cytotoxicity at 10 µM ([5]; A549, 10 μΜ) | cytotoxicity at 50 µM ([5]; A549, 50 μΜ) | cytotoxicity at 100 µM [5] | viability at 24 h, 50 μM [3] | viability at 24 h, 100 μM ([3]; 100 μΜ) | % Cell Toxicity 10 μΜ ([5]; A549, 10 μΜ) | % Cell Toxicity 50 μΜ ([5]; A549, 50 μΜ) | viability at 24 h, 1 μM ([3]; 1 μΜ) | % Cell Viability 10 μΜ ([4]; 10 μΜ)
1 | −0.83 | O=c1[nH]c(=S)[nH]c2nc(-c3ccccc3)cc(-c3cccs3)c12 [Compound 2c, 7-phenyl-5-(thiophen-2-yl)-2-thioxo-2,3-dihydropyrido [2,3-d]pyrimidin-4(1H)-one] | 14% | 10% | 16.1% | no | 49.4% | 63.6% | 100% |  |  |  |  |  | 
2 | −0.60 | O=c1[nH]c(=S)[nH]c2nc(-c3ccccc3)cc(-c3ccc(Cl)cc3Cl)c12 [Compound 2g, 5-(2,4-dichlorophenyl)-7-phenyl-2-thioxo-2,3-dihydropyrido [2,3-d]pyrimidin-4(1H)-one] | 1% | no | 56.7% | no |  | 79.1% | 79.4% |  |  |  |  |  | 
3 | −0.50 | O=C(/C=C/c1ccccc1)c1ccc(Cl)cc1 [Compound 1b, (E)-1-(4-chlorophenyl)-3-phenylprop-2-en-1-one] | no | 4% | 28.1% | no | 49.2% | 88.1% | 100% |  |  |  |  |  | 
4 | −0.87 | O=c1[nH]c(=S)[nH]c2nc(-c3ccccc3)cc(-c3ccc(Cl)cc3)c12 [Compound 2e, 5-(4-chlorophenyl)-7-phenyl-2-thioxo-2,3-dihydropyrido [2,3-d]pyrimidin-4(1H)-one] | 24% | 42% | 22.9% | no | 48% | 83.9% | 82.1% |  |  |  |  |  | 
5 | −0.87 | O=c1[nH]c(=S)[nH]c2nc(-c3ccc(Cl)cc3)cc(-c3ccccc3)c12 [Compound 2b, 7-(4-chlorophenyl)-5-phenyl-2-thioxo-2,3-dihydropyrido [2,3-d]pyrimidin-4(1H)-one] | no | 1% | 75.1% | no | 47.9% | 83.5% | 100% | 26% |  |  |  |  | 
6 | −0.21 | O=C(/C=C/c1ccc(Cl)cc1Cl)c1ccccc1 [Compound 1g, (E)-3-(2,4-dichlorophenyl)-1-phenylprop-2-en-1-one] | 2% | 8% | 100% |  |  |  | 10.8% | 32.7% | 2.1% | no | no |  | 
7 | −0.46 | O=C(/C=C/c1cccs1)c1ccc(Cl)cc1 [Compound 1d, (E)-1-(4-chlorophenyl)-3-(thiophen-2-yl)prop-2-en-1-one] | no | no | 72.8% | no | 47.4% | 83.2% | 100% | 53% |  |  |  |  | 
8 | −0.80 | O=c1[nH]c(=S)[nH]c2nc(-c3ccc(Cl)cc3)cc(-c3cccs3)c12 [Compound 2d, 7-(4-chlorophenyl)-5-(thiophen-2-yl)-2-thioxo-2,3-dihydropyrido [2,3-d]pyrimidin-4(1H)-one] | no | no | 50% | no | 48.6% | 100% | 100% |  |  |  |  |  | 
9 | −0.24 | O=C(/C=C/c1ccc(Cl)cc1)c1ccc(Cl)cc1 [Compound 1f, (E)-1,3-bis(4-chlorophenyl)prop-2-en-1-one] | no | no | 100% | no | 48.9% | 67.6% | 100% | 57% |  |  |  |  | 
10 | −0.95 | O=c1[nH]c(=S)[nH]c2nc(-c3ccccc3)cc(-c3ccccc3)c12 [Compound 2a, 5,7-diphenyl-2-thioxo-2,3-dihydropyrido [2,3-d]pyrimidin-4(1H)-one] | 29% | 56% | 100% | no | 56.4% | 75% | 80.9% | 85.6% |  |  |  |  | 
11 | −0.50 | O=C(/C=C/c1ccc(Cl)cc1)c1ccccc1 [Compound 1e, (E)-3-(4-chlorophenyl)-1-phenylprop-2-en-1-one] | no | no | 100% | no |  | 6.8% | 36.8% | 89.9% |  |  |  |  | 
12 | −0.05 | O=C(/C=C/c1ccc(Cl)cc1Cl)c1ccc(Cl)cc1 [Compound 1h, (E)-1-(4-chlorophenyl)-3-(2,4-dichlorophenyl)prop-2-en-1-one] | no | no | 25.4% | no | 49.1% | 81.1% | 100% |  |  |  |  |  | 
13 | −0.91 | O=c1[nH]c(=S)[nH]c2nc(-c3ccc(Cl)cc3)cc(-c3ccc(Cl)cc3)c12 [Compound 2f, 5,7-bis(4-chlorophenyl)-2-thioxo-2,3-dihydropyrido [2,3-d]pyrimidin-4(1H)-one] | no | no |  | no | 48.6% | 88.1% | 100% |  |  |  |  | 73.4% | no
14 | −0.57 | O=C(/C=C/c1ccccc1)c1ccccc1 [Compound 1a, (E)-1,3-diphenylprop-2-en-1-one] | 22% | no | 55.1% | no | 41.8% | 81.6% | 100% |  |  |  |  |  | 
